Consider 26 compounds from US20020028940A1, “Indolyl-substituted phenylacetic acid derivatives” (priority 1995, published 2002).

Like-named read-outs stand apart in the source and are kept apart here.

In data set [1] the test system is ApoB-100-associated lipoproteins. In words: Inhibition of the release of ApoB-100-associated lipoproteins from hepatic cells (HepG2), LDL immunoassay. The format is cell-based, human. Conditions: concentration at which adsorption of light (450 nm) is inhibited by 50% compared with solvent control. How it is done:
1. Inhibition of the release of ApoB-100-associated lipoproteins
The test for detection of the inhibition of the release of ApoB-100-associated lipoproteins from hepatic cells was carried out in vitro with cultured hepatic cells, preferably with cells of the human line HepG2. These cells are cultured under standard conditions in medium for culture of eukaryotic cells, preferably in RPM 1640 with 10% foetal calf serum. HepG2 cells synthesize and secrete into the culture supernatant ApoB-100-associated lipoprotein particles, which are in principle built up similarly to the VLDL and LDL particles which are to be found in plasma.
These particles can be detected with an immunoassay for human LDL. This immunoassay is carried out with antibodies which have been induced against human LDL in rabbits under standard conditions. The anti-LDL antibodies (rab-anti-LDL-Ab) were purified by affinity chromatography on an immunosorbent with human LDL. These purified rab-anti-LDL-Ab are adsorbed onto the surface of plastic. This adsorption is expediently carried out on the plastic surface of microtiter plates with 96 wells, preferably on MaxiSorp plates. If ApoB-100-associated particles are present in the supernatant of Hep-G2 cells, these can then bond to the insolubilized rab-anti-LDL-Ab, and an immune complex bonded to the plastic surface is formed. Non-bonded proteins are removed by washing. The immune complex on the plastic surface is detected with monoclonal antibodies, which have been induced against human LDL and purified under standard conditions. These antibodies were conjugated with the enzyme peroxidase. Peroxidase converts the colourless substrate TMB into a coloured product in the presence of H2O2. After acidification of the reaction mixture with H2SO4, the specific adsorption of light is determined at 450 nm, this being a measure of the amount of ApoB-100-associated particles which had been secreted by the HepG2 cells into the culture supernatant.
The IC50 value indicates the concentration of substance at which the adsorption of light is inhibited by 50% compared with the control (solvent control without the substance).

The subject of data set [2] is intestinal triglyceride absorption. Kind of data set: Inhibition of intestinal triglyceride absorption in vivo (rats). The arrangement: species or system male Wistar rats. The following applies: fasting rats, postprandial serum triglyceride increase after tragacanth-olive oil loading. The protocol:
3. Inhibition of intestinal triglyceride absorption in vivo (rats)
The substances which are to be investigated in vivo for their inhibiting action on triglyceride absorption are administered orally to male Wistar rats having a body weight of between 170 and 230 g. For this purpose, the animals are divided into groups of 6 animals 18 hours before administration of the substance, and their food is then withdrawn. Drinking water is available to the animals ad libitum. The animals of the control groups are given an aqueous tragacanth suspension or a tragacanth suspension which comprises olive oil. The tragacanth-olive oil suspension is prepared with an Ultra-Turrax. The substances to be investigated are suspended in a corresponding tragacanth-olive oil suspension, likewise with an Ultra-Turrax, directly before administration of the substance.
Before administration by a stomach tube, blood is taken from each rat by puncture of the retroorbital venous plexus for determination of the basal serum triglyceride content. The tragacanth suspension, the tragacanth-olive oil suspensions without a substance (control animals) or the substances, suspended in a corresponding tragacanth-olive oil suspension, are then administered to the fasting animals using a stomach tube. Further blood for determination of the postprandial serum triglyceride increase is as a rule taken 1, 2 and 3 hours after the administration by a stomach tube.
The blood samples are centrifuged and, after isolation of the serum, the triglycerides are determined photometrically with an EPOS-Analyzer 5060 (Eppendorf Gerätebau, Netheler & Hinz GmbH, Hamburg). The triglycerides are determined completely enzymatically with a commercially available UV test.
The postprandial increase in serum triglycerides is determined by subtraction of the triglyceride prevalue of each animal from its corresponding postprandial triglyceride concentrations (1, 2 and 3 hours after administration).
The average is taken of the differences (in mmol/l) at each point in time (1, 2 and 3 hours) in the groups, and the means of the increase in serum triglycerides (ΔTG) of the animals treated with the substance are compared with the animals which received only the tragacanth-oil suspension.
The course of the serum triglycerides in the control animals, which were given only tragacanth, is also calculated. The effect of the substance at each point in time (1, 2 or 3 hours) is determined as follows and stated in Δ% of the oil-loaded control. [formula]
Effect of 10 mg of test substance/kg of body weight p.o. on the increase in triglycerides (Δ%) 2 hours after a triglyceride loading in the serum of fasting rats. The increase in serum triglycerides of fat-loaded control animals, based on the serum triglycerides level of tragacanth control animals, corresponds to 100%. n=6 animals per group.
The statistical analysis is carried out with the Student t-test after first checking the variances for homogeneity.

By IC50 is commonly meant the concentration that gives 50% inhibition. High values mean a need for much substance, low ones inhibition by little substance. `CCOC(=O)c1cc2ccccc2n1Cc1ccc(C(C(=O)NC(CO)c2ccccc2)C2CCCCCC2)cc1` (single isomer, unassigned) [Example 21] gave an IC50 in data set [1] of 0.0045 µM. The ED50 in data set [2] (p.o.) is >>6 mg/kg.
A word on the melting point: it is the temperature, or range, at which the solid turns liquid. Take `Cc1c(C)n(Cc2ccc(C(C(=O)N[C@@H](CO)c3ccccc3)C3CCCCCC3)cc2)c2ccccc12` (stereo partly drawn) [Example 2, 2-Cycloheptyl-N-(2-hydroxy-1-(R)-phenylethyl)-2-[4-(2,3-dimethylindol-1-yl-methyl)phenyl]acetamide]: the melting point is 163 °C. The compound also came in with an IC50 in data set [1] (Homo sapiens) of 0.0295 µM. Also, the ED50 in data set [2] (Rattus norvegicus, po, read-out: TG absorption ED50 or % inhibition mg/kg/p.o.) was < 3 mg/kg.
With `Cc1cc2ccccc2n1Cc1ccc(C(C(=O)NC(CO)c2ccccc2)C2CCCCCC2)cc1` (mixture of isomers) [Example 4], the half-inhibitory concentration (IC50) in data set [1] was found to be 0.0405 µM. In addition, the ED50 in data set [2] (p.o.) is recorded as <10 mg/kg.
In data set [1], `CCOC(=O)c1cc2cc(Cl)ccc2n1Cc1ccc(C(C(=O)NC(CO)c2ccccc2)C2CCCC2)cc1` (mixture of isomers) [Example 26] registered an IC50 of 0.0268 µM.
The compound `CCOC(=O)c1cc2ccccc2n1Cc1ccc(C(C(=O)NC(CO)c2ccccc2)C2CCCCCC2)cc1` (mixture of isomers) [Example 20] registered a 50% inhibitory concentration (IC50) in data set [1] of 0.0081 µM. Moreover, in data set [2] (p.o.), the ED50 is on record as >>10 mg/kg.
Turning to `CCOC(=O)c1cc2cc(Cl)ccc2n1Cc1ccc(C(C(=O)NC(CO)c2ccccc2)C2CCCC2)cc1` (single isomer, unassigned) [Example 28], half-maximal inhibition in data set [1] (IC50) required 0.0626 µM.
In data set [1], `O=C(NC(CO)c1ccccc1)C(c1ccc(Cn2c(-c3ccccc3)cc3ccccc32)cc1)C1CCCCCC1` (mixture of isomers) [Example 16] returned an IC50 of 0.0359 µM. Further, the ED50 in data set [2] (p.o.) is given as >2 mg/kg.
In the case of `Cc1c(C)n(Cc2ccc(C(C(=O)NC(CO)c3ccccc3)C3CCCC3)cc2)c2ccccc12` (single isomer, unassigned) [Example 7], in data set [1], half-maximal inhibition (IC50) was put at 0.229 µM.
`O=C(NC(CO)c1ccccc1)C(c1ccc(Cn2ccc3ccc(Cl)cc32)cc1)C1CCCC1` (single isomer, unassigned) [Example 34] yielded an IC50 in data set [1] of 0.0123 µM. In data set [2] (p.o.), this compound registered an ED50 of 2 mg/kg.
In data set [1], `CCOC(=O)c1cc2ccccc2n1Cc1ccc(C(C(=O)NC(CO)c2ccccc2)C2CCCCCC2)cc1` (single isomer, unassigned) [Example 22] yielded a half-maximal inhibitory concentration (IC50) of 0.0235 µM.
Turning to `COc1cccc2c1ccn2Cc1ccc(C(C(=O)NC(CO)c2ccccc2)C2CCCC2)cc1` (mixture of isomers) [Example 36], the IC50 in data set [1] was found to be 0.0725 µM.
On the same count and under the same terms, next, `O=C(NC(CO)c1ccccc1)C(c1ccc(Cn2ccc3ccc(Cl)cc32)cc1)C1CCCC1` (mixture of isomers) [Example 33]: 0.0411 µM; `CCOC(=O)c1cc2ccccc2n1Cc1ccc(C(C(=O)NC(CO)c2ccccc2)C2CCCC2)cc1` (mixture of isomers) [Example 17]: 0.0381 µM; `Cc1cccc2ccn(Cc3ccc(C(C(=O)NC(CO)c4ccccc4)C4CCCC4)cc3)c12` (mixture of isomers) [Example 31]: 0.428 µM.
Take `CCOC(=O)c1cc2cc(Cl)ccc2n1Cc1ccc(C(C(=O)NC(CO)c2ccccc2)C2CCCC2)cc1` (single isomer, unassigned) [Example 27]: the IC50 in data set [1] turned out to be 0.0065 µM. Further, the ED50 in data set [2] (p.o.) is reported as >2 mg/kg.
In data set [1], `O=C(NC(CO)c1ccccc1)C(c1ccc(Cn2c(-c3ccccc3)cc3ccccc32)cc1)C1CCCC1` (single isomer, unassigned) [Example 15] displayed an IC50 of 0.0473 µM.
Same read-out and setting: next, `O=C(NC(CO)c1ccccc1)C(c1ccc(Cn2ccc3ccc(Cl)cc32)cc1)C1CCCC1` (single isomer, unassigned) [Example 35]: 0.308 µM; `COc1cccc2c1ccn2Cc1ccc(C(C(=O)NC(CO)c2ccccc2)C2CCCC2)cc1` (single isomer, unassigned) [Example 38]: 0.27 µM.
`COc1cccc2c1ccn2Cc1ccc(C(C(=O)NC(CO)c2ccccc2)C2CCCC2)cc1` (single isomer, unassigned) [Example 37]: the IC50 in data set [1] worked out at 0.0311 µM. In data set [2] (p.o.), the ED50 is on record as >2 mg/kg.
For the compound `Cc1c(C)n(Cc2ccc(C(C(=O)NC(CO)c3ccccc3)C3CCCCC3)cc2)c2ccccc12` (mixture of isomers) [Example 8], in data set [1], inhibition was half-maximal at 0.0505 µM (IC50).
Same read-out and setting: next, `O=C(NC(CO)c1ccccc1)C(c1ccc(Cn2ccc3cc(Cl)ccc32)cc1)C1CCCCCC1` (mixture of isomers) [Example 32]: 0.0485 µM; `Cc1c(C)n(Cc2ccc(C(C(=O)NC(CO)c3ccccc3)C3CCCC3)cc2)c2ccccc12` (mixture of isomers) [Example 5]: 0.0832 µM; `O=C(NC(CO)c1ccccc1)C(c1ccc(Cn2c(-c3ccccc3)cc3ccccc32)cc1)C1CCCC1` (single isomer, unassigned) [Example 14]: 0.474 µM.
In turn, `CCOC(=O)c1cc2cc(OC)ccc2n1Cc1ccc(C(C(=O)NC(CO)c2ccccc2)C2CCCC2)cc1` (mixture of isomers) [Example 23] yielded an IC50 in data set [1] of 0.0361 µM. The compound further registered an ED50 in data set [2] (p.o.) of 2 mg/kg.
In data set [1], `Cc1c(C)n(Cc2ccc(C(C(=O)NC(CO)c3ccccc3)C3CCCC3)cc2)c2ccccc12` (single isomer, unassigned) [Example 6] registered an IC50 of 0.0374 µM.
In data set [1], `Cc1cn(Cc2ccc(C(C(=O)NC(CO)c3ccccc3)C3CCCCCC3)cc2)c2ccccc12` (mixture of isomers) [Example 29] showed an IC50 of 0.0405 µM. Moreover, the ED50 in data set [2] (p.o.) turned out to be 3 mg/kg.
